Test system: A549 cells
Assay: mRNA array gene expression analysis after transfection
Format: cell-based, human
Details: A549, 30 nM

In the case of “hsa-miR-126 (UCGUACCGUGAGUAAUAAUGC; synthetic pre-miR form, further chemistry not given here) [Synthetic hsa-miR-126 (Pre-miR™-hsa-miR-126, Ambion cat. no. AM17100)]”, the “Δ log2 LBA1 mRNA” value was 1.07 log2, the “Δ log2 LCN2 mRNA” value was 1.032 log2 and the “Δ log2 LOC93349 mRNA” value was 1.021 log2. For the same substance, the “Δ log2 LOC257407 mRNA” value was 1.211 log2, the “Δ log2 LRP12 mRNA” value was −2.094 log2 and the “Δ log2 LXN mRNA” value was 1.017 log2. For the same substance, the “Δ log2 M6PRBP1 mRNA” value was −1.074 log2, the “Δ log2 MAP1B mRNA” value was −0.706 log2 and the “Δ log2 MAP3K1 mRNA” value was 1.609 log2. The “Δ log2 MAPK6 mRNA” value was −0.81 log2, the “Δ log2 MASK mRNA” value was −1.4 log2 and the “Δ log2 MAWBP mRNA” value was 1.126 log2. The “Δ log2 MAZ mRNA” value was −1.133 log2, the “Δ log2 MCL1 mRNA” value was 1.394 log2 and the “Δ log2 MET mRNA” value was −0.9508 log2. For the same substance, the “Δ log2 MICAL2 mRNA” value was −1.182 log2, the “Δ log2 MMP7 mRNA” value was 1.127 log2 and the “Δ log2 MR1 mRNA” value was 0.702 log2. The “Δ log2 MTUS1 mRNA” value was 0.7009 log2, the “Δ log2 MYBL1 mRNA” value was −1.008 log2 and the “Δ log2 NAB1 mRNA” value was −0.7242 log2. For the same substance, the “Δ log2 NCF2 mRNA” value was −0.8706 log2, the “Δ log2 NEK4 mRNA” value was −1.197 log2 and the “Δ log2 NF1 mRNA” value was −1.383 log2. The “Δ log2 NF2 mRNA” value was −0.8288 log2, the “Δ log2 NID1 mRNA” value was 0.8833 log2 and the “Δ log2 NPTX1 mRNA” value was −1.204 log2. The “Δ log2 NR1H4 mRNA” value was 1.063 log2, the “Δ log2 NR2F1 mRNA” value was 0.8754 log2 and the “Δ log2 NR4A2 mRNA” value was 1.19 log2. The “Δ log2 NRIP1 mRNA” value was 0.7196 log2, the “Δ log2 NUCKS mRNA” value was 2.05 log2 and the “Δ log2 OLFML3 mRNA” value was −1.333 log2. For the same substance, the “Δ log2 OXTR mRNA” value was −1.374 log2, the “Δ log2 PCAF mRNA” value was −1.071 log2 and the “Δ log2 PDCD4 mRNA” value was 1.094 log2. The “Δ log2 PDK4 mRNA” value was 1.686 log2, the “Δ log2 PDXK mRNA” value was −1.142 log2 and the “Δ log2 PDZK1IP1 mRNA” value was 0.8906 log2. For the same substance, the “Δ log2 PEX10 mRNA” value was −0.7177 log2, the “Δ log2 PGK1 mRNA” value was 1.563 log2 and the “Δ log2 PHACTR2 mRNA” value was 0.8791 log2. The “Δ log2 PHTF2 mRNA” value was −1.334 log2, the “Δ log2 PLA1A mRNA” value was 1.623 log2 and the “Δ log2 PLA2G4A mRNA” value was 0.8899 log2. The “Δ log2 PLCB1 mRNA” value was 1.421 log2, the “Δ log2 PLEC1 mRNA” value was −0.9035 log2 and the “Δ log2 PLK1 mRNA” value was −0.7295 log2. For the same substance, the “Δ log2 PLOD2 mRNA” value was −1.204 log2, the “Δ log2 PMCH mRNA” value was 0.9697 log2 and the “Δ log2 PMM1 mRNA” value was −1.034 log2. The “Δ log2 PPP3CB mRNA” value was −1.185 log2, the “Δ log2 PRKCA mRNA” value was −1.083 log2 and the “Δ log2 PRO1843 mRNA” value was 1.386 log2. The “Δ log2 PROS1 mRNA” value was 1.021 log2, the “Δ log2 PSME3 mRNA” value was −0.8427 log2 and the “Δ log2 PTENP1 mRNA” value was 0.8904 log2. The “Δ log2 PTK9 mRNA” value was 1.028 log2, the “Δ log2 PTP4A1 mRNA” value was 0.7259 log2 and the “Δ log2 PXN mRNA” value was −0.8029 log2. For the same substance, the “Δ log2 Pfs2 mRNA” value was −0.7674 log2, the “Δ log2 QDPR mRNA” value was −1.048 log2 and the “Δ log2 QKI mRNA” value was 0.7094 log2. For the same substance, the “Δ log2 RAB2 mRNA” value was 1.459 log2, the “Δ log2 RAB11FIP2 mRNA” value was −0.8417 log2 and the “Δ log2 RAB40B mRNA” value was 1.166 log2. For the same substance, the “Δ log2 RABL2B /// RABL2A mRNA” value was −0.8805 log2, the “Δ log2 RAFTLIN mRNA” value was 0.9753 log2 and the “Δ log2 RARRES1 mRNA” value was 1.523 log2. The “Δ log2 RARRES3 mRNA” value was 1.399 log2, the “Δ log2 RASSF2 mRNA” value was −1.355 log2 and the “Δ log2 RBP4 mRNA” value was 1.037 log2. For the same substance, the “Δ log2 RGC32 mRNA” value was 1.701 log2, the “Δ log2 RHEB mRNA” value was 1.113 log2 and the “Δ log2 RHOB mRNA” value was −1.015 log2. For the same substance, the “Δ log2 RHOBTB1 mRNA” value was 1.197 log2, the “Δ log2 RIG mRNA” value was 0.9993 log2 and the “Δ log2 RIP mRNA” value was 1.299 log2. The “Δ log2 RNASE4 mRNA” value was 1.351 log2, the “Δ log2 RNF14 mRNA” value was −1.293 log2 and the “Δ log2 RPL14 mRNA” value was 0.7937 log2. For the same substance, the “Δ log2 RPL38 mRNA” value was 1.084 log2, the “Δ log2 RPS11 mRNA” value was 1.097 log2 and the “Δ log2 RRAGD mRNA” value was 1.193 log2. The “Δ log2 SCARB2 mRNA” value was 0.9635 log2, the “Δ log2 SCML1 mRNA” value was 0.9483 log2 and the “Δ log2 SDC1 mRNA” value was −0.9726 log2. The “Δ log2 SDC4 mRNA” value was −1.316 log2, the “Δ log2 SEC24A mRNA” value was 0.7724 log2 and the “Δ log2 SELENBP1 mRNA” value was 1.193 log2. The “Δ log2 SEPP1 mRNA” value was 2.014 log2, the “Δ log2 SEPT9 mRNA” value was −0.7282 log2 and the “Δ log2 SERPINA6 mRNA” value was 1.032 log2. For the same substance, the “Δ log2 SERPINE1 mRNA” value was −1.338 log2, the “Δ log2 SF3B4 mRNA” value was −1.044 log2 and the “Δ log2 SGPL1 mRNA” value was −1.59 log2. For the same substance, the “Δ log2 SGPP1 mRNA” value was −1.773 log2, the “Δ log2 SH3YL1 mRNA” value was 1.026 log2 and the “Δ log2 SLC2A3 mRNA” value was 0.7467 log2. For the same substance, the “Δ log2 SLC3A2 mRNA” value was −1.221 log2, the “Δ log2 SLC4A4 mRNA” value was −1.661 log2 and the “Δ log2 SLC4A7 mRNA” value was −0.9064 log2. For the same substance, the “Δ log2 SLC7A5 mRNA” value was −1.958 log2, the “Δ log2 SLC7A11 mRNA” value was −0.721 log2 and the “Δ log2 SLC26A2 mRNA” value was −1.615 log2. For the same substance, the “Δ log2 SLC35D1 mRNA” value was −1.443 log2, the “Δ log2 SLC39A6 mRNA” value was −2.468 log2 and the “Δ log2 SMARCA2 mRNA” value was 0.8119 log2. For the same substance, the “Δ log2 SMTN mRNA” value was −1.071 log2, the “Δ log2 SNRPD1 mRNA” value was −0.7027 log2 and the “Δ log2 SOCS2 mRNA” value was −0.7193 log2. The “Δ log2 SORBS3 mRNA” value was −1.106 log2, the “Δ log2 SPFH2 mRNA” value was 0.9346 log2 and the “Δ log2 SRD5A1 mRNA” value was −0.9713 log2. For the same substance, the “Δ log2 STC1 mRNA” value was 0.8696 log2, the “Δ log2 STK24 mRNA” value was −1.021 log2 and the “Δ log2 STX3A mRNA” value was 0.7983 log2. For the same substance, the “Δ log2 SUMO2 mRNA” value was 0.9996 log2, the “Δ log2 TAGLN mRNA” value was −0.9221 log2 and the “Δ log2 TARDBP mRNA” value was −1.05 log2. The “Δ log2 TFG mRNA” value was 0.9981 log2, the “Δ log2 TFPI mRNA” value was 1.003 log2 and the “Δ log2 TGFBR2 mRNA” value was 1.068 log2. For the same substance, the “Δ log2 TGFBR3 mRNA” value was 1.082 log2, the “Δ log2 THBS1 mRNA” value was −0.9922 log2 and the “Δ log2 TJP2 mRNA” value was 0.8301 log2. The “Δ log2 TLR3 mRNA” value was 1.096 log2, the “Δ log2 TM4SF20 mRNA” value was 0.9319 log2 and the “Δ log2 TNFAIP6 mRNA” value was −1.542 log2. The “Δ log2 TNFRSFI2A mRNA” value was −1.07 log2, the “Δ log2 TNFSF10 mRNA” value was 1.066 log2 and the “Δ log2 TNRC9 mRNA” value was 0.8141 log2. The “Δ log2 TNS1 mRNA” value was 1.235 log2, the “Δ log2 TP73L mRNA” value was 0.7602 log2 and the “Δ log2 TRA1 mRNA” value was 1.982 log2. For the same substance, the “Δ log2 TRIM14 mRNA” value was −1.157 log2, the “Δ log2 TRIM22 mRNA” value was 1.379 log2 and the “Δ log2 TSC mRNA” value was 1.372 log2. For the same substance, the “Δ log2 TSPAN7 mRNA” value was 0.8049 log2, the “Δ log2 TSPAN8 mRNA” value was 1.266 log2 and the “Δ log2 TTC3 mRNA” value was 0.7079 log2. For the same substance, the “Δ log2 TUBB2 /// TUBB-PARALOG mRNA” value was −0.904 log2, the “Δ log2 TXN mRNA” value was 1.543 log2 and the “Δ log2 TncRNA” value was 1.613 log2. The “Δ log2 UAP1 mRNA” value was −1.613 log2, the “Δ log2 UBE2L6 mRNA” value was 0.9119 log2 and the “Δ log2 UPK1B mRNA” value was −1.042 log2. The “Δ log2 VDAC1 mRNA” value was −1.181 log2, the “Δ log2 VDAC3 mRNA” value was 1.063 log2 and the “Δ log2 VIL2 mRNA” value was 0.7604 log2. The “Δ log2 WDR1 mRNA” value was −0.8373 log2, the “Δ log2 WDR41 mRNA” value was −1.49 log2 and the “Δ log2 WEE1 mRNA” value was 0.8892 log2. For the same substance, the “Δ log2 WNT7B mRNA” value was −1.114 log2, the “Δ log2 XM_371853 (gene symbol —) mRNA” value was 0.9326 log2 and the “Δ log2 XTP2 mRNA” value was 0.9083 log2. The “Δ log2 YKT6 mRNA” value was −1.176 log2, the “Δ log2 YOD1 mRNA” value was 0.869 log2 and the “Δ log2 YTHDF3 mRNA” value was −0.9397 log2. The “Δ log2 ZNF467 mRNA” value was 1.211 log2.

Reference: patent publication US20090131354A1, “miR-126 REGULATED GENES AND PATHWAYS AS TARGETS FOR THERAPEUTIC INTERVENTION” (priority 2007, published 2009)
